Experimental data published in patent US20240101957A1, “METHODS AND COMPOSITIONS FOR GENERATING EMBRYOS IN VITRO FROM PLURIPOTENT STEM CELLS” (California Institute of Technology, priority 2022, published 2024).
Entries after “also recorded” stand apart in the source; their conditions may differ.

B1: Activin-A: an agonist of SMAD2.3 signaling (protein, UniProt P08476 311-426, looked up)
Inhibin beta A chain: GLECDGKVNICCKKQFFVSFKDIGWNDWIIAPSGYHANYCEGECPSHIAGTSGSSLSFHSTVINHYRMRGHSPFANLKSCCVPTKLRPMSMLYYDDGQNIIKKDIQNMIVEECGCS
modifications: Inhibin beta A chain
notes: an agonist of SMAD2.3 signaling
B2: BMP4: bone morphogenic protein-4, TGFβ superfamily member (protein, UniProt P12644 293-408, looked up)
Bone morphogenetic protein 4: SPKHHSQRARKKNKNCRRHSLYVDFSDVGWNDWIVAPPGYQAFYCHGDCPFPLADHLNSTNHAIVQTLVNSVNSSIPKACCVPTELSAISMLYLDEYDKVVLKNYQEMVVEGCGCR

Columns and labels:
Format in all cases: cell-based
[1] = system: inducible human embryoids; test: Formation of organized inducible human embryoids with BMP inhibitor added between days 0-2; settings: added between days 0-2 post-aggregation; vs untreated control
Description: (§1) To generate the three-dimensional stem cell-derived model of the post-implantation embryo, RSeT cells between 2 and 6 passages post-conversion to RSeT media were passaged as normal. The media for extraembryonic-like cells (induced GATA6, induced GATA6-SOX17 or induced GATA3-AP2γ) was changed to N2B27 with 5% Knockout Serum Replacement and 1 μg/mL DOX on the following day (Day −3). This media was refreshed every 24 hours for 3 days. On Day 0 (the day of aggregation), an Aggrewell dish (34415, STEMCELL Technologies) was prepared by pre-coating with anti-adherence solution (07010, STEMCELL Technologies) and centrifuging at 2000 g for 5 minutes. Wells were washed twice with PBS prior to the addition of experiment media. This media consisted of N2B27 with 5% knockout serum replacement, 1 μg/mL doxycycline, and 10 μM Y-27632. Induced cells and wildtype ESCs were enzymatically dissociated 1 hour after addition of 10 μM Y-27632 to wells containing cells for inducible human embryoid generation. Dissociated cells were pelleted and resuspended in experiment media and placed in gelatin-coated wells for MEF depletion. After 15-30 minutes, cells were counted, mixed, and plated into an Aggrewell dish with a final calculation of 8 wildtype-ESC, 8 hypoblast-like, and 16 trophoblast-like cells plated per microwell in the Aggrewell. […]

human embryo-like model [2] = test: Differentiation of the inner epiblast-like domain (SOX2, CDX2, AP2a immunofluorescence) in treated human embryo-like model; settings: treated between 48- and 96-hours post-aggregation; Day 4 and Day 6; compared to untreated control or BMP4 treated structures
Description: as §1

human embryo-like model [3] = test: Number of SOX17/NANOG/AP2γ triple-positive primordial germ cell-like cells in treated embryoids; settings: Day 4 embryoids; vs control
Description: as §1, with “Aggrewell. At 8 d.p.f., in vitro cultured human embryos had 32:24:228 epiblast:hypoblast:trophoblast cells. Importantly, however, many of the trophoblast cells were not in contact with the inner cell mass-derived tissues or were terminally differentiated. Additionally, inducible GATA6-SOX17 cells in culture proliferated slower than the other two cell populations after doxycycline addition. Therefore, an initial seeding density with: (1) a total cell number similar to that used in mouse models that allowed for successful cell sorting; (2) a ratio of cells that reflected the peri-implantation embryo; and (3) a reduced number of inducible GATA3-AP2γ cells and an increased number of inducible GATA6-SOX17 cells was utilized.” for “Aggrewell.”

Molecule	formation of organized structures (embryoid formation) [1]	CDX2 and AP2a upregulation in the inner domain (human embryo-like model [2])	SOX2 expression in the inner domain (human embryo-like model [2])	number of primordial germ cell-like cells (human embryo-like model [3])
c1ccc2c(-c3cnn4cc(-c5ccc(N6CCNCC6)cc5)cnc34)ccnc2c1 [LDN193189]	blocked formation of organized structures; also recorded: failing to form	lesser CDX2 and AP2a upregulation	increased maintenance of SOX2 expression	decreased
B1				minimal effect
B2				minimal effect
